PMC10813862, “Gαi2 Protein Inhibition Blocks Chemotherapy- and Anti-Androgen-Induced Prostate Cancer Cell Migration” (Cancers, 2024)
“And” between values parts separate entries of the source, which are not always exact repeats. Identical values can stand only once.

What was measured:
[1] = tested on: MDA-MB-231 cells; assay: MTS viability, MDA-MB-231 cells; type: cell-based; settings: Homo sapiens, 72 h, n=3
Method: (§1) Figure S1A. Effects of compounds 3- 7, 10, 12, 13 and 15 on the viability of LNCaP,
(§2) MDA-MD-231, MCF-7 and Vero cells. The cells are incubated with the drugs for 72 h
(§3) and viability evaluated with MTS. NI = IC50 greater than 100 μM. n=3
(§4) Compound LNCaP (µM) MDA-MB-231 (µM) MCF-7 (µM) Vero (µM)

[2] = tested on: Vero cells; assay: MTS viability, Vero cells; type: cell-based; settings: Chlorocebus sabaeus, 72 h, n=3
Method: as §1, §2, §3, §4

[3] = tested on: MCF-7 cells; assay: MTS viability, MCF-7 cells; type: cell-based; settings: Homo sapiens, MCF7, 72 h, n=3
Method: as §1, §2, §3, §4

[4] = tested on: LNCaP cells; assay: MTS viability, LNCaP cells; type: cell-based; settings: Homo sapiens, 72 h, n=3
Method: as §1, §2, §3, §4

[5] = tested on: PC3 cells; assay: transwell migration assay, PC3 cells; type: cell-based, human; settings: for effect on PC3 cell migration (migration index): compound alone, concentration range 0.1 to 100 μM, 5 h, compared with 14; for effect of chemotherapeutic drugs on PC3 cell migration: drug alone, AR-negative cells; for PC3 cell migration in combination with SAHA or docetaxel: Gαi2 inhibitor at 20 μM, in combination with either SAHA or docetaxel
Method: (§5) In vitro transwell migration assays were conducted as described previously. Briefly, the outside of the transwell inserts (BD Biosciences, San Jose, CA, USA) were coated with 50 µL of rat tail collagen (50 μg/mL; BD Biosciences, San Jose, CA, USA) overnight at 4 °C. The next day, 50 μL of the aforementioned rat tail collagen was added for 1 h at room temperature into the transwell inserts to coat the inside of the membranes. DU145, PC3 and LNCaP cells were trypsinized and suspended at the appropriate density (3 × 10^5 cells/insert for DU145 and PC3, and 5 × 10^5 cells/insert for LNCaP) in MEM or RPMI containing 0.2% BSA (Sigma-Aldrich, St. Louis, MO, USA). Chemoattractant solution, used as the positive control, was made by diluting the epidermal growth factor (EGF) (10 ng/mL) into MEM (PC3 and DU145) or RPMI (LNCaP) supplemented with 0.2% BSA. Media containing 0.2% BSA served as a control. Control and EGF solutions (400 μL) were added into the wells of a 24-well plate. Aliquots of 100 μL of cell suspensions, treated with or without the different compounds at several concentrations, were loaded into the transwell inserts, and the plates were incubated at 37 °C for 5 h (DU145 and PC3) or 24 h (LNCaP). The cells inside the transwell inserts were removed by cotton swabs, and the cleaned inserts were fixed with 350 μL of 4% paraformaldehyde (pH 7.5) for 20 min at room temperature. Cells that had migrated to the outside of the transwell insert membrane were stained with 3 ng/mL of DAPI solution (Thermo Fisher Scientific, Eugene, OR, USA), and images of five non-overlapping fields were captured using an Axiovert 200M, Carl Zeiss (Thornwood, NY, USA) microscope. The number of stained nuclei were determined with automatic counting using image analysis software (ZEN 2012 (blue edition, Version 1.1.1.0); Carl Zeiss Microscopy GmbH, Oberkochen, Germany). The results were expressed as a migration index defined as the average number of cells per field for test substance/the average number of cells per field for the medium control.

[6] = tested on: DU145 cells; assay: transwell migration assay, DU145 cells; type: cell-based, human; settings: drug alone, AR-negative cells
Method: as §5

[7] = tested on: Gαi2 protein; assay: Western blot of Gαi2 protein levels in LNCaP cells; type: cell-based, human; settings: 24 h; enzalutamide 2.5 μM, bicalutamide 2.5 μM, SBI-I-19 2 μM, SAHA 4 μM
Method: (§6) Docetaxel, a taxoid anti-cancer agent, was purchased from Millipore-Sigma and dissolved in DMSO at a starting concentration of 100 μM. SAHA, a commercially available FDA-approved HDACi, was purchased from Sigma-Aldrich (St. Louis, MO, USA) and dissolved in DMSO at a starting concentration of 100 mM. SBI-I-19, an HDAC inhibitor conjugated with anti-androgen, was dissolved in DMSO at a starting concentration of 50 mM. The anti-androgen drugs enzalutamide and bicalutamide were purchased from Selleckchem (Houston, TX, USA) and Sigma-Aldrich, respectively. Anti-androgens were prepared at a stock concentration of 100 mM (enzalutamide) and 10 mM (bicalutamide) in DMSO. The Gαi2 inhibitor (compound 14) was diluted in DMSO at a stock concentration of 100 mM, as previously described. All drugs used in the study were then diluted in the culture media to the final concentrations used in various assays. To determine the effects of specific treatments on the levels of Gαi2 protein, LNCaP and PC3 cells (10^6 cells) were cultured overnight in 10 cm^2 culture dishes. The cells were then treated with anti-androgens and other agents for 24 h and the total cell lysates were collected for Western blot analyses.
Western blot analyses were performed as described previously. Briefly, cell lysates were mixed with Laemmeli’s buffer (62.5 mM Tris, pH 6.8, 2% sodium dodecyl sulfate, 5% β–mercaptoethanol and 10% glycerol). Samples (30–35 µg proteins) were separated on 10% SDS-PAGE gels and transferred to polyvinylidene difluoride (PVDF) membranes (Millipore Corp., Bedford, MA, USA). After blocking the membranes with 5% fat-free milk in TBST (50 mM Tris, pH 7.5, containing 0.15 M NaCl, and 0.05% Tween 20) for 1 h at room temperature, the membranes were incubated with specific primary antibodies at appropriate dilutions (1:5000 for Gαi2; 1:3000 for α-tubulin) overnight at 4 °C. After washing, the blots were incubated with appropriate secondary antibodies. The blots were then developed in Millipore Luminata Forte (EMD Millipore) for 5 min and visualized using a BioRad ChemiDoc Imaging System, according to the manufacturer’s instructions. The density of specific protein bands was determined using ImageJ 1.53 K image analyses software.

[8] = tested on: LNCaP cells; assay: transwell migration assay, LNCaP cells; type: cell-based, human; settings: for effect on LNCaP cell migration (migration index): drug alone at several concentrations; for effect on LNCaP cell migration (migration index) / concentration of maximum induction of LNCaP cell migration: 24 h; for concentration of maximum induction of LNCaP cell migration: drug alone
Method: as §5

[9] = tested on: PC3 cells; set-up: method as in PMID 32575572; settings: cited from earlier work
[10] = tested on: DU145 cells; set-up: method as in PMID 32575572; settings: cited from earlier work
[11] = stability in mouse liver microsomes; type: in vitro ADME; settings: read-out: Microsome t1/2, Mouse
From the text: Table 1 Stability of compounds 6, 7 and 10 in human and mouse plasma and liver microsomes. | column: Microsome (t1/2 = Min) / Mouse

[12] = stability in human plasma; type: in vitro ADME; settings: read-out: Plasma t1/2, Human
From the text: Table 1 Stability of compounds 6, 7 and 10 in human and mouse plasma and liver microsomes. | column: Plasma (t1/2 = Min) / Human

[13] = stability in mouse plasma; type: in vitro ADME; settings: read-out: Plasma t1/2, Mouse
From the text: Table 1 Stability of compounds 6, 7 and 10 in human and mouse plasma and liver microsomes. | column: Plasma (t1/2 = Min) / Mouse

[14] = stability in human liver microsomes; type: in vitro ADME; settings: read-out: Microsome t1/2, Human
From the text: Table 1 Stability of compounds 6, 7 and 10 in human and mouse plasma and liver microsomes. | column: Microsome (t1/2 = Min) / Human

[15] = tested on: Gαi2 protein; assay: Western blot of Gαi2 protein levels in PC3 cells; type: cell-based, human; settings: 24 h; docetaxel 1 nM
Method: as §6
Western blot analyses were performed as described previously. […] The density of specific protein bands was determined using ImageJ 1.53 K image analyses software.

SMILES | IC50 [1] [µM] | IC50 [2] [µM] | IC50 [3] [µM] | IC50 [4] [µM] | effect on PC3 cell migration (migration index) [5] | other results
Cn1c(/C=N/c2ccc(O)cc2)cc2ccccc21 [Compound 3] | > 100 | > 100 | > 100 | > 100 | concentration dependent reduction of PC3 cell migration, but less efficiently relative to 14 | –
CNC(=O)c1ccc(N2C(=S)N(c3ccc(C#N)c(C(F)(F)F)c3)C(=O)C2(C)C)cc1F [enzalutamide] | – | – | – | – | – | effect of chemotherapeutic drugs on DU145 cell migration [6]: increased cell migration; levels of Gαi2 protein in LNCaP cells [7]: increased levels of Gαi2 protein; effect on LNCaP cell migration (migration index) [8]: induced a dose-dependent increase in cell migration; concentration of maximum induction of LNCaP cell migration [8]: 2.5 µM
CSc1ccc(/N=C(\C)c2cc3ccccc3n2C)cc1 [Compound 4] | > 100 | > 100 | > 100 | > 100 | concentration dependent reduction of PC3 cell migration, but less efficiently relative to 14 | –
C/C(=N\c1ccc(O)cc1)c1cc2ccccc2n1C [Compound 14] | – | – | – | – | – | EGF-induced migration of PC3 cells [9]: attenuated the EGF-induced migration; EGF-induced migration of DU145 cells [10]: attenuated the EGF-induced migration; effect on docetaxel-induced PC3 cell migration ([5]; compound 14 at 25 μM, simultaneous treatment with docetaxel): blocked the stimulatory effects of docetaxel; effect on HDACi- and anti-androgen-induced LNCaP cell migration ([8]; compound 14 at 25 μM, simultaneous treatment with enzalutamide, bicalutamide, SAHA or SBI-I-19): blocked
CC(Oc1ccc(O)cc1)c1cc2ccccc2n1C (stereo not shown) [Compound 15] | > 100 | > 100 | > 100 | > 100 | did not inhibit the migration of PC3 cells at the maximum concentration tested | –
O=C(CCCCCCC(=O)Nc1ccccc1)NO [SAHA] | – | – | – | – | – | effect of chemotherapeutic drugs on DU145 cell migration [6]: increased cell migration; levels of Gαi2 protein in LNCaP cells [7]: induced a reduction in the levels of Gαi2 protein; effect of chemotherapeutic drugs on PC3 cell migration [5]: induced an increase in cell migration; effect on LNCaP cell migration (migration index) [8]: induced a significant dose-dependent increase in cell migration; concentration of maximum induction of LNCaP cell migration [8]: 0.5 µM and 1 µM
CC(Oc1ccc(S(C)(=O)=O)cc1)c1cc2ccccc2n1C (stereo not shown) [Compound 12] | > 100 | > 100 | > 100 | > 100 | less effective | –
CC(Nc1ccc(O)cc1)c1cc2ccccc2n1C (stereo not shown) [Compound 6] | 27.3 ± 4.8 | 32.4 ± 1.6 | 75.7 ± 5.3 | 86.8 ± 10.8 | more effective relative to 14 | half-life [11]: 47 min; half-life [12]: > 120 min; half-life [13]: 27 min; half-life [14]: 118 min; PC3 cell migration in combination with SAHA or docetaxel [5]: decreased significantly PC3 cell migration
CC1(C)C(=O)N(c2ccc(C#N)c(C(F)(F)F)c2)C(=O)N1Cc1ccc(-c2cn(CCCCC(=O)NO)nn2)cc1 [SBI-I-19] | – | – | – | – | – | effect of chemotherapeutic drugs on DU145 cell migration [6]: increased cell migration; levels of Gαi2 protein in LNCaP cells [7]: increased levels of Gαi2 protein; effect on LNCaP cell migration (migration index) [8]: induced a significant dose-dependent increase in cell migration; concentration of maximum induction of LNCaP cell migration [8]: 1 µM and 2 µM
CC(O)(CS(=O)(=O)c1ccc(F)cc1)C(=O)Nc1ccc(C#N)c(C(F)(F)F)c1 (stereo not shown) [bicalutamide] | – | – | – | – | – | levels of Gαi2 protein in LNCaP cells [7]: increased levels of Gαi2 protein; effect on LNCaP cell migration (migration index) [8]: induced a dose-dependent increase in cell migration; concentration of maximum induction of LNCaP cell migration [8]: 2.5 µM
CSc1ccc(OC(C)c2cc3ccccc3n2C)cc1 (stereo not shown) [Compound 10] | > 100 | > 100 | > 100 | > 100 | less potent compared to 7 | half-life [11]: < 10 min; half-life [12]: > 120 min; half-life [13]: > 120 min; half-life [14]: 35 min; PC3 cell migration in combination with SAHA or docetaxel [5]: decreased significantly PC3 cell migration
CSc1ccc(NC(C)c2cc3ccccc3n2C)cc1 (stereo not shown) [Compound 7] | > 100 | > 100 | > 100 | 43.4 ± 3.9 | more effective relative to 14 | half-life [11]: < 10 min; half-life [12]: > 120 min; half-life [13]: > 120 min; half-life [14]: 45 min; PC3 cell migration in combination with SAHA or docetaxel [5]: decreased significantly PC3 cell migration
CC(=O)O[C@@]12CO[C@@H]1C[C@H](O)[C@@]1(C)C(=O)[C@H](O)C3=C(C)[C@@H](OC(=O)[C@H](O)[C@@H](NC(=O)OC(C)(C)C)c4ccccc4)C[C@@](O)([C@@H](OC(=O)c4ccccc4)[C@H]21)C3(C)C [docetaxel, reference compound] | – | – | – | – | – | levels of Gαi2 protein in PC3 cells [15]: had no effect on the levels of Gαi2 protein; effect of chemotherapeutic drugs on PC3 cell migration [5]: induced an increase in cell migration
CC(Oc1ccc([S+](C)[O-])cc1)c1cc2ccccc2n1C (stereo not shown) [Compound 13] | > 100 | > 100 | > 100 | > 100 | less effective | –
Cn1c(CNc2ccc(O)cc2)cc2ccccc21 [Compound 5] | > 100 | > 100 | > 100 | > 100 | comparable potency | –
